Test results as given in patent US12691093B2 (THE TRUSTEES OF INDIANA UNIVERSITY, priority 2020, dated 2026).

System: MC38-OVA cells
Test: CD8+ T cell cytotoxicity assay (OT-I CD8+ T cells co-cultured with MC38-OVA cells, luciferase)
Assay type: cell-based, mouse
Details: each drug 5.0 μM; in vitro luciferase assay
Method: MC38-OVA cells expressing luciferase were co-cultured with OT-I CD8+ T cells in the presence of each drug (5.0 μM) and the T cell-mediated cytotoxicity was measured by the luciferase assay. Difference (log 2): (log 2 [relative viability] >1; P<0.05). Relative viability=(tumor cell viability of treated group)/(tumor cell viability of control group). […] Statistical analysis was conducted using 1-way ANOVA.
T cells were then centrifuged and cultured in RPMI1640 medium containing of 2 ng/ml murine IL2, 10% FBS and 1% PS.To measure the cytotoxicity of CD8+ T cells, 50,000 enriched CD8+ T cells were mixed in 96-well plates with MC38-OVA cells at ratios of 5:1, 1:1 or 1:5. […] We assessed the killing efficiency by measuring the activity of luciferase (#E1910, Dual-Luciferase® Reporter Assay System, Promega) after 6 hours of co-culture of the T-cells together with the tumor cells.
The CD8+ T cells were freshly isolated from the spleen of OT-I mouse (C57BL/6-Tg (TcraTcrb) 1100Mjb/J).

In the case of `COc1ccc(-c2coc3cc(O)cc(O)c3c2=O)cc1` [biochanin A], the “ranking in screen of antigen-specific OT-I CD8+ T-cell killing of MC38-OVA tumor cells” value is reported as “top-ranked compounds that most potently affected the T-cell activity”.
In the case of icariin, the “ranking in screen of antigen-specific OT-I CD8+ T-cell killing of MC38-OVA tumor cells” value is reported as “top-ranked compounds that most potently affected the T-cell activity”.
